The values below are quoted from earlier work in patent US11666686B2, “Amtimicrobial silicones” (WYNNVISION, LLC, priority 2020, dated 2023).

Consider `CCCCCCCCCCCCCCN(C)C` [C14, N,N-dimethyltetradecylamine], for which the pKa is listed as around 10.
